From ChEMBL document CHEMBL1149012, “Effects of phenolic constituents from the mulberry tree on arachidonate metabolism in rat platelets” (J Nat Prod, 1986)
Calls of active or inactive are those of the source. The rule behind the calls is not given here.

Tests used:
Platelet [1] = test: Inhibition of thromboxane B2 formation in Wistar King platelets; type: functional, cell-based; conditions: Rattus norvegicus
Platelet [2] = test: Inhibition of 12-hydroxy-5,8,10-heptadecatrienoic acid formation in Wistar King platelets; type: functional, cell-based; conditions: Rattus norvegicus
Platelet [3] = test: Inhibition of 12-hydroxy-5,8,10,14-eicosatetraenoic acid formation in Wistar King platelets; type: functional, cell-based; conditions: Rattus norvegicus
Platelet [4] = test: Stimulation of 12-hydroxy-5,8,10,14-eicosatetraenoic acid formation in Wistar King platelets; type: functional, cell-based; conditions: Rattus norvegicus
Platelet [5] = test: Stimulation of 12-hydroxy-5,8,10,14-eicosatetraenoic acid formation in Wistar King platelets at 10 uM; type: functional, cell-based; conditions: Rattus norvegicus
Platelet [6] = test: Stimulation of 12-hydroxy-5,8,10,14-eicosatetraenoic acid formation in Wistar King platelets at 1 mM; type: functional, cell-based; conditions: Rattus norvegicus
Platelet [7] = test: Inhibition of 12-hydroxy-5,8,10,14-eicosatetraenoic acid formation in Wistar King platelets at 1 mM; type: functional; conditions: Rattus norvegicus
Platelet [8] = test: Inhibition of thromboxane B2 formation in Wistar King platelets at 1 mM; type: functional; conditions: Rattus norvegicus
Platelet [9] = test: Inhibition of 12-hydroxy-5,8,10-heptadecatrienoic acid formation in Wistar King platelets at 1 mM; type: functional; conditions: Rattus norvegicus
Platelet [10] = test: Stimulation of 12-hydroxy-5,8,10,14-eicosatetraenoic acid formation in Wistar King platelets at 0.1 mM; type: functional, cell-based; conditions: Rattus norvegicus
Platelet [11] = test: Inhibition of 12-hydroxy-5,8,10,14-eicosatetraenoic acid formation in Wistar King platelets at 0.1 mM; type: functional; conditions: Rattus norvegicus, values are per cent of control

| Compound | IC50 (Platelet [1]) [µM] | IC50 (Platelet [2]) [µM] | Activity (Platelet [4]) | Activity (Platelet [5]) | Activity (Platelet [6]) | inhibition at 1000 µM (Platelet [7]) [%] | also measured |
| --- | --- | --- | --- | --- | --- | --- | --- |
| OC[C@H]1O[C@@H](Oc2cc(O)cc(/C=C/c3ccc(O[C@@H]4O[C@H](CO)[C@@H](O)[C@H](O)[C@H]4O)cc3O)c2)[C@H](O)[C@@H](O)[C@@H]1O | – | – | – | – | – | – | Activity (Platelet [1]): inactive; Activity (Platelet [2]): inactive; Activity (Platelet [3]): inactive |
| CC(C)=CCc1c(O)ccc(C(=O)[C@@H]2[C@@H](c3c(O)cc(O)c4c(=O)c(CC=C(C)C)c(-c5ccc(O)cc5O)oc34)C=C(C)C[C@H]2c2ccc(O)cc2O)c1O [KUMANON H] | 75.7 | 24 | Active | Active | Active | – | – |
| CC(C)=CCc1c(-c2ccc(O)cc2O)oc2c([C@H]3Oc4cc(O)c5c(=O)c(CC=C(C)C)c(-c6ccc(O)cc6O)oc5c4[C@@H]4C=C(C)CC(C)(C)[C@H]34)c(O)cc(O)c2c1=O [KUMANON M] | – | – | – | – | – | 68 | inhibition at 1000 µM (Platelet [8]): 87.3%; inhibition at 1000 µM (Platelet [9]): 81.5% |
| CC1=C[C@H]2c3c(O)cc(-c4cc5ccc(O)cc5o4)cc3O[C@@]3(c4ccc(O)cc4O)Oc4cc(O)ccc4[C@H](C1)[C@@H]23 [MULBERROFURAN G] | 34.7 | 10.7 | – | – | – | – | IC50 (Platelet [3]): 89 µM |
| CC1=C[C@H](c2c(O)cc(-c3cc4ccc(O)cc4o3)cc2O)[C@@H](C(=O)c2ccc(O)cc2O)[C@H](c2ccc(O)cc2O)C1 [MULBERROFURAN J] | 50.7 | 36.3 | – | – | – | 35.5 | Activity (Platelet [10]): Active; residual activity at 100 µM (Platelet [11]): 194%; IC50 (Platelet [3]): 823 µM |
| CC12C[C@@H](c3ccc(O)cc3O1)C13OC1(c1ccc(O)cc1O)Oc1cc(-c4cc5ccc(O)cc5o4)cc(O)c1C3C2=O (stereo not given in full) [MULBERROFURAN Q] | 355 | 227 | Active | Active | Active | – | – |

Now from value to molecule, other results behind:

| IC50 (Platelet [1]) [µM] | IC50 (Platelet [2]) [µM] | Compound | Activity (Platelet [4]) | Activity (Platelet [5]) | Activity (Platelet [6]) | inhibition at 1000 µM (Platelet [7]) [%] | also measured |
| --- | --- | --- | --- | --- | --- | --- | --- |
| 132 | 89.3 | CC(C)=CCc1c(-c2ccc(O)cc2O)oc2c([C@H]3C=C(C)C[C@@H](c4ccc(O)cc4O)[C@@H]3C(=O)c3ccc(O)cc3O)c(O)cc(O)c2c1=O [KUMANON G] | Active | Active | Active | – | – |
| 180 | 112 | CC(C)=CC[C@]12Oc3cc(O)c([C@H]4C=C(C)C[C@H](c5ccc(O)cc5O)[C@H]4C(=O)c4ccc(O)cc4O)c(O)c3C(=O)[C@@]1(O)Oc1cc(O)ccc12 [SANGGENON C] | Active | Active | Active | – | – |
| 48.3 | 43.3 | CC(C)=CCC12Oc3cc(O)ccc3C1(O)Oc1cc(O)c([C@H]3C=C(C)C[C@@H](c4ccc(O)cc4O)[C@@H]3C(=O)c3ccc(O)cc3O)c(O)c1C2=O (stereo not given in full) [SANGGENON D] | – | – | – | 51 | Activity (Platelet [10]): Active; residual activity at 100 µM (Platelet [11]): 256% |
